Biological target: T1, GCase (Homo sapiens, UniProt P04062)
T1 construct: endogenous in cells; host or cells: HeLa cells
T1 sequence (P04062 40-536): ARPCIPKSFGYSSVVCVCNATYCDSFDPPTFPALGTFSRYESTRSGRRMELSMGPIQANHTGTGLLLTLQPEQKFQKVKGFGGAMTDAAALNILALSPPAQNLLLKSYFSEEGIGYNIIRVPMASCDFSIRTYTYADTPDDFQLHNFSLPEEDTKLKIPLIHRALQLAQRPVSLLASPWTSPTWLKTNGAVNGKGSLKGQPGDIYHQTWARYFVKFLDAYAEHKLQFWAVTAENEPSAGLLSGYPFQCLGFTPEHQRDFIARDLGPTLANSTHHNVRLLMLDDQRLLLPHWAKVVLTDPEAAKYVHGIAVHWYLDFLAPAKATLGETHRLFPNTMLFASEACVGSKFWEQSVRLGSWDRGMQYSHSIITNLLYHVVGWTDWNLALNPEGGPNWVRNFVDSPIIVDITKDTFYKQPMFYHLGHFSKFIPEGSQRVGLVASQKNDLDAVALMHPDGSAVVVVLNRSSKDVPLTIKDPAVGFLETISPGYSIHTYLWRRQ
Assay: activation of GCase in a live cell PFB assay in HELA cells
Format: cell-based
Protocol: Exemplary compounds were evaluated for activation of GCase in a live cell PFB assay in HELA cells (essentially as described in Ysselstein et al., “LRRK2 kinase activity regulates lysosomal glucocerebrosidase in neurons derived from Parkinson's disease patients” Nature Communications (2019) 10:5570). […] EC50 ranges: A: <10 μM; B: >10-50 μM; C: >50-100 μM; D: >100 μM.

[1] = activation of GCase, EC50 ranges

SMILES: FC(F)Cn1ncc2ncc(N3CCC4(CCN(c5cncc(C(F)(F)F)c5)C4)CC3)nc21 [Compound 148, 8-[1-(2,2-difluoroethyl)-1H-pyrazolo[3,4-b]pyrazin-6-yl]-2-[5-(trifluoromethyl)pyridin-3-yl]-2,8-diazaspiro[4.5]decane]
- EC50 [1]: < 10 µM

SMILES: FC(F)(F)c1cc(N2CC3(CCN(c4cncc(-c5ncc(C(F)(F)F)s5)n4)C3)C2)ccn1 [Cmpd 1028]
- EC50 (EC50 given as range classes): 10 to 50 µM

SMILES: O=C1N(Cc2cncc(F)c2)CCC12CCN(c1cnc3cnn(CC(F)F)c3n1)CC2 [Cmpd 331]
- EC50 [1]: 10 to 50 µM

SMILES: Cc1nc(N2CCC3(CCN(c4cnc5c(C)nn(CC(F)F)c5n4)CC3)C2)cc(C(F)(F)F)n1 [Cmpd 575]
- EC50 [1]: > 100 µM

SMILES: FC(F)Cn1ncc2ncc(N3CCC4(CC3)CN(c3cnccc3C(F)(F)F)C4)nc21 [Compound 76, 7-[1-(2,2-difluoroethyl)-1H-pyrazolo[3,4-b]pyrazin-6-yl]-2-[4-(trifluoromethyl)pyridin-3-yl]-2,7-diazaspiro[3.5]nonane]
- EC50 [1]: < 10 µM

SMILES: O=C1CC2(CCN(c3ccnc(C(F)(F)F)c3)C2)CN1c1cnc2cnn(CC(F)F)c2n1 (stereo not drawn) [Cmpd 506]
- EC50 [1]: > 100 µM

SMILES: CCn1c(=O)n(CC(F)F)c2nc(N3CCC4(C3)CN(c3cnc(C)nc3C(F)(F)F)C4)ncc21 [Cmpd 1083]
- EC50 [1]: 10 to 50 µM

SMILES: FC(F)Cn1ncc2ncc(N3CCCC4(CN(c5cncc(C(F)(F)F)c5)C4)C3)nc21 [Compound 15, 6-[1-(2,2-difluoroethyl)-1H-pyrazolo[3,4-b]pyrazin-6-yl]-2-[5-(trifluoromethyl)pyridin-3-yl]-2,6-diazaspiro[3.5]nonane]
- EC50 [1]: 10 to 50 µM

SMILES: FC(F)Cn1ncc2ncc(N3CCC4(CN(c5ccc(C(F)(F)F)nn5)C4)C3)nc21 [Cmpd 440]
- EC50 [1]: 50 to 100 µM

SMILES: Cc1nc(N2CC3(CCN(c4cnc5c(C)nn(CC(F)(F)F)c5n4)C3)C2)cc(C(F)(F)F)n1 [Cmpd 608]
- EC50 (EC50 given as range classes): 50 to 100 µM

SMILES: CCc1nccn1-c1cncc(N2CCC3(CCN(c4ccc(C(F)(F)F)nc4)C3)CC2)n1 [Cmpd 263]
- EC50 [1]: < 10 µM

SMILES: CCOc1nn(CC(F)F)c2nc(N3CCC4(CN(c5ccnc(C(F)(F)F)c5)C4)C3)ncc12 [Cmpd 939]
- EC50 [1]: < 10 µM

SMILES: O=C1N(c2cc(C(F)(F)F)ccn2)CCC12CCN(c1cncc(OCC(F)(F)F)n1)CC2 [Cmpd 244]
- EC50 [1]: 10 to 50 µM

SMILES: FC(F)Cn1ncc2ncc(NC3CCC4(CCN(c5ccc(C(F)(F)F)nc5)C4)C3)nc21 (stereo not drawn) [Cmpd 193]
- EC50 (EC50 given as range classes): 10 to 50 µM

SMILES: FC(F)Cn1ncc2ncc(N3CCC4(CCC(Oc5ccc(C(F)(F)F)nc5)C4)CC3)nc21 (stereo not drawn) [Cmpd 693]
- EC50 [1]: < 10 µM

SMILES: O=C1C[C@@]2(CC3CCC2CN3c2cnc3cnn(CC(F)F)c3n2)CN1c1ccc(C(F)(F)F)cn1 (stereo partly drawn) [Cmpd 863]
- EC50 [1]: < 10 µM

SMILES: O=C1CC2(CCN(c3cnc4cnn(CC(F)F)c4n3)CC2)CN1Cc1ccnc(C(F)(F)F)c1F [Cmpd 966]
- EC50 [1]: < 10 µM

SMILES: CCOc1nn(CC(F)F)c2nc(N3CCC4(CN(c5ccnc(C(F)(F)F)c5)C4)C3)cnc12 [Cmpd 937]
- EC50 [1]: < 10 µM

SMILES: FC(F)Cn1ncc2ncc(N3CCC4(CCN(c5cnc(C(F)(F)F)nc5)C4)C3)nc21 (stereo not drawn) [Cmpd 481]
- EC50 [1]: 10 to 50 µM

SMILES: CCn1c(=O)n(CC(F)F)c2nc(N3CCC4(CC3)CCN(c3cnc(C(F)(F)F)nc3C)C4)cnc21 [Cmpd 1085]
- EC50 [1]: < 10 µM

SMILES: Cc1csc(CN2CC3(CCN(c4cnc5cnn(CC(F)F)c5n4)CC3)CC2=O)n1 [Cmpd 399]
- EC50 (EC50 given as range classes): 10 to 50 µM

SMILES: CCOc1nn(C2COC2)c2nc(N3CCC4(CN(c5ccnc(C(F)(F)F)c5)C4)C3)ncc12 [Cmpd 946]
- EC50 [1]: 10 to 50 µM

SMILES: O=C1CC2(CCN(c3cnc4cnn(CC(F)F)c4n3)CC2)CN1Cc1cnc(OCC(F)(F)F)nc1 [Cmpd 894]
- EC50 [1]: 10 to 50 µM

SMILES: Cc1cc(N2CC3(CCN(c4cnc5cnn(CC(F)F)c5n4)CC3)C2)nc(C(F)(F)F)n1 [Cmpd 527]
- EC50 [1]: < 10 µM

SMILES: Cc1nc(N2CCC3(CC2)CN(c2cnc4c(C)nn(CC(F)F)c4n2)C3)cc(C(F)(F)F)n1 [Cmpd 585]
- EC50 (EC50 given as range classes): < 10 µM

SMILES: O=C1CC2(CCN(c3cnc4cnn(CC(F)F)c4n3)CC2)CN1c1ccc(C(F)(F)F)cn1 [Cmpd 685]
- EC50 [1]: 10 to 50 µM

SMILES: FC(F)Cn1ncc2ncc(N3CCC4(CCN(c5cncc(C(F)(F)F)n5)C4)CC3)nc21 [Cmpd 733]
- EC50 [1]: < 10 µM

SMILES: Cc1nn(CC(F)F)c2nc(N3CCC4(CCN(c5ccnc(C(F)(F)F)c5)C4=O)C3)ncc12 (stereo not drawn) [Cmpd 515]
- EC50 [1]: < 10 µM

SMILES: O=C1N(c2ccc(C(F)(F)F)nc2)C(=O)C2(CCN(c3cnc4cnn(CC(F)F)c4n3)CC2)N1CCOC(F)(F)F [Cmpd 877]
- EC50 [1]: < 10 µM

SMILES: O=C1CC2(CCCN(c3cnc4cnn(CC(F)F)c4n3)C2)CN1c1cc(C(F)(F)F)ccn1 (stereo not drawn) [Compound 97, 7-[1-(2,2-difluoroethyl)-1H-pyrazolo[3,4-b]pyrazin-6-yl]-2-[4-(trifluoromethyl)pyridin-2-yl]-2,7-diazaspiro[4.5]decan-3-one]
- EC50 [1]: 50 to 100 µM

SMILES: FC(F)Cn1ncc2ncc(N3CCC4(CCN(c5cc(C(F)(F)F)ccn5)C4)CC3)nc21 [Compound 6, 8-[1-(2,2-difluoroethyl)-1H-pyrazolo[3,4-b]pyrazin-6-yl]-2-[4-(trifluoromethyl)pyridin-2-yl]-2,8-diazaspiro[4.5]decane]
- EC50 [1]: < 10 µM

SMILES: CCOc1ccc(CN2CCC3(CCN(c4cnc5cnn(CC(F)F)c5n4)CC3)C2=O)cn1 [Cmpd 356]
- EC50 [1]: 10 to 50 µM

SMILES: FC(F)Cn1ncc2ncc(N3CCC4(CCCN(c5ccc(C(F)(F)F)cn5)C4)CC3)nc21 [Cmpd 213]
- EC50 (EC50 given as range classes): 10 to 50 µM

SMILES: Cn1c(N2CCC3(CCN(c4cnc(C(F)(F)F)nc4)C3)CC2)nc2c(cnn2CC(F)F)c1=O [Cmpd 1015]
- EC50 (EC50 given as range classes): 10 to 50 µM

SMILES: Cc1nc(N2CC3(CCN(c4ncc5c(C)nn(C6COC6)c5n4)CC3)C2)cc(C(F)(F)F)n1 [Cmpd 570]
- EC50 [1]: 10 to 50 µM

SMILES: Cc1cc(F)cc(-n2cc(C(=O)N3CCC4(CC3)CCN(c3cc(C(F)(F)F)ccn3)C4=O)nn2)c1 [Cmpd 268]
- EC50 [1]: 10 to 50 µM

SMILES: O=C1N(c2cnc3cnn(CC(F)F)c3n2)CCC12CCN(c1ccc(C(F)(F)F)cn1)CC2 [Compound 121, 2-[1-(2,2-difluoroethyl)-1H-pyrazolo[3,4-b]pyrazin-6-yl]-8-[5-(trifluoromethyl)pyridin-2-yl]-2,8-diazaspiro[4.5]decan-1-one]
- EC50 [1]: < 10 µM

SMILES: FC(F)(F)OCCn1ncc2ncc(N3CCC4(CN(c5ccnc(C(F)(F)F)c5)C4)C3)nc21 [Cmpd 1034]
- EC50 [1]: < 10 µM

SMILES: COc1nc(N2CCC3(CC2)CC(=O)N(c2cc(C(F)(F)F)ccn2)C3)nc2c1cnn2CC(F)F [Cmpd 304]
- EC50 [1]: < 10 µM

SMILES: O=C(c1cnc(C(F)(F)F)nc1)N1CC2(CCN(c3cnc4cnn(CC(F)F)c4n3)CC2)C1 [Cmpd 326]
- EC50 [1]: 10 to 50 µM

SMILES: FC(F)(F)Cn1ncc2ncc(N3CC4(CCN(c5ccnc(C(F)(F)F)c5)C4)C3)nc21 [Cmpd 350]
- EC50 [1]: < 10 µM

SMILES: O=C1N(c2cc(C(F)(F)F)ccn2)CCC12CCN(c1cnc3cnn(C4COC4)c3n1)CC2 [Cmpd 273]
- EC50 [1]: 10 to 50 µM

SMILES: FC(F)Cn1ncc2ncc(N3CCCC4(CC(Oc5cc(C(F)(F)F)ccn5)C4)C3)nc21 (stereo not drawn) [Compound 29, 6-[1-(2,2-difluoroethyl)-1H-pyrazolo[3,4-b]pyrazin-6-yl]-2-{[4-(trifluoromethyl)pyridin-2-yl]oxy}-6-azaspiro[3.5]nonane]
- EC50 [1]: 10 to 50 µM

SMILES: O=C1N(c2nc(C(F)(F)F)c(F)cc2F)CCC12CCN(c1cnc3cnn(CC(F)F)c3n1)CC2 [Cmpd 664]
- EC50 [1]: 10 to 50 µM

SMILES: FC(F)(F)c1ccc(N2CCC3(CCN(c4cncc(N5CCCC5)n4)CC3)C2)cn1 [Cmpd 248]
- EC50 [1]: < 10 µM

— patent US20250034170A1, “SMALL MOLECULE MODULATORS OF GLUCOCEREBROSIDASE ACTIVITY AND USES THEREOF” (Vanqua Bio, Inc., priority 2021, published 2025)
